Results taken from patent US10899738B2 (THE REGENTS OF THE UNIVERSITY OF MICHIGAN, priority 2016, dated 2021).
Where two headings read alike, the source gives them in different places.

What was measured:
menin protein = menin protein (Homo sapiens (Human), UniProt O00255); assay: biochemical; format: binding
In short: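 Test compounds displaced FAM-MM2 (2 nM) from 4 nM menin after 30 min equilibration at room temperature in PBS buffer containing bovine γ-globulin, 4% DMSO and Triton X-100. Binding was followed by fluorescence polarization. Competition curves were fitted by nonlinear regression to give IC50 and Ki.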

[1] = Cell growth inhibition, CellTiter-Glo Luminescent Cell Viability Assay; format: cell-based
In short: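 Cells seeded at 2,000/well with serially diluted compound and cultured 4 days at 37 °C, 5% CO2. Viability read by CellTiter-Glo luminescence; IC50 derived from dose-response.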

MV4-11 cells = assay: Mechanism of action studies, gene expression measured with qPCR in MV4-11 cells; format: cell-based
Experimental: (§1) MOLM-13 or MV4-11 cells were seeded in a 6-well plate at a density of 500,000 cells/well in 2 ml of culture medium and treated with either Cpd. No. 210 or Cpd. No. 366 at the concentrations as indicated. About 4 days after the treatments, cells were harvested and the expression of each gene was measured with qPCR.
as §1, with “500,000-800,000” for “500,000”, “366” for “210”, “215” for “366”, “40 hours” for “4 days”, “treatment,” for “treatments,”

MOLM-13 cells = assay: Mechanism of action studies, gene expression measured with qPCR in MOLM-13 cells; format: cell-based
Experimental: as §1
as §1, with “MOLM-13” for “MOLM-13 or MV4-11”, “366” for “210”, “238” for “366”, “66 hours” for “4 days”, “treatment,” for “treatments,”
as §1, with “500,000-800,000” for “500,000”, “366” for “210”, “215” for “366”, “40 hours” for “4 days”, “treatment,” for “treatments,”

[2] = FP competitive binding, menin protein 4 nM, FAM-MM2 probe 2 nM, read-out: Menin Binding Affinity IC50
[3] = MOLM-13, 96 h, read-out: Cell Growth Inhibition IC50 (μM) MOLM13, MOLM13 cells, 4 days, CellTiter-Glo
[4] = MV4-11, 96 h, read-out: Cell Growth Inhibition IC50 (μM) MV4, 11, MV4, 11 cells, 4 days, CellTiter-Glo
[5] = MOLM-13, 96 h, read-out: Cell Growth Inhibition IC50 (μM) MOLM13
[6] = MV4-11, 96 h, read-out: Cell Growth Inhibition IC50 (μM) MV4, 11
[7] = 4 days of treatment, dose dependent
[8] = 66 hours of treatment, dose dependent

menin protein, sequence (O00255 whole entry): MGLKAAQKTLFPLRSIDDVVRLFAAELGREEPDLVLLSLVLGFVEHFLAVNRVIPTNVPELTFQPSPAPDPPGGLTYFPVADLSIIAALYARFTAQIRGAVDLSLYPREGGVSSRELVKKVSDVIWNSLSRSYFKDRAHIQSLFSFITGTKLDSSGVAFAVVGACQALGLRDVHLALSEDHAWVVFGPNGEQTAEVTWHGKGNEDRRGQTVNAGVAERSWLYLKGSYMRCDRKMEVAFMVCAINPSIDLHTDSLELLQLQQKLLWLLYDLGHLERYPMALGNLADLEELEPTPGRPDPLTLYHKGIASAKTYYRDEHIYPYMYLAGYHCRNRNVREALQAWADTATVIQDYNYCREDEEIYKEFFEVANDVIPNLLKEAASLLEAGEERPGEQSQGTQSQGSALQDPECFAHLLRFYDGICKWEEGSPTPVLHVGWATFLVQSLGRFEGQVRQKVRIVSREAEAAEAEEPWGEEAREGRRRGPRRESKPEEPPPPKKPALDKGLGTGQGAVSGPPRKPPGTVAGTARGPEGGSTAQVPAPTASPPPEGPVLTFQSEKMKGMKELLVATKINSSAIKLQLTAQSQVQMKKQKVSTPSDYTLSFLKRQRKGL

Which IC50 (menin protein; [2]) does the source give for `CNC(=O)O[C@H]1CCC[C@@H]1C(C#N)(c1ccccc1)C1CCN(CC2CN(c3ccc(S(=O)(=O)c4ccncc4)cc3)C2)CC1` (mixture of isomers) [Cpd. No. 215, rac-(1S,2R)-2-(cyano(phenyl)(1-((1-(4-(pyridin-4-ylsulfonyl)phenyl)azetidin-3-yl)methyl)piperidin-4-yl)methyl)cyclopentyl methylcarbamate] here?
The IC50 was 0.006 µM.

What about the IC50 [1, 3] of the same compound?
Its IC50 is 0.415 ± 0.208 µM.

What about the IC50 [1, 4] of the same compound?
Its IC50 is 0.173 ± 0.048 µM.

What about the HOX7 gene expression (MV4-11 cells; 40 hours of treatment) of the same compound?
The HOX7 gene expression was “Neither Cpd. No. 366 nor Cpd. No. 215 showed an effect”.

Which IC50 (menin protein; Menin Binding Affinity IC50 (μM)) does the source give for `CNC(=O)O[C@H]1CCC[C@@H]1C1(C2CCN(CC3CN(c4ccc(S(=O)(=O)c5ccncc5)cc4)C3)CC2)CN(C)Cc2ccccc21` (mixture of isomers) [Cpd. No. 210, rac-(1S,2R)-2-(2-methyl-4-(1-((1-(4-(pyridin-4-ylsulfonyl)phenyl)azetidin-3-yl)methyl)piperidin-4-yl)-1,2,3,4-tetrahydroisoquinolin-4-yl)cyclopentyl methylcarbamate] here?
The IC50 was 0.004 µM.

And the IC50 [1, 5]?
The IC50 was 0.135 ± 0.093 µM.

And the IC50 [1, 6]?
The IC50 was 0.023 ± 0.016 µM.

What about the MEIS1 gene expression (MOLM-13 cells; 4 days of treatment) of the same compound?
The MEIS1 gene expression was “reduced”.

And the HOX7 gene expression (MOLM-13 cells; [7])?
Its HOX7 gene expression is “reduced”.

What about the HOX10 gene expression (MOLM-13 cells; [7]) of the same compound?
The HOX10 gene expression was “reduced”.

What about the HOX7 gene expression (MV4-11 cells; 4 days of treatment) of the same compound?
The HOX7 gene expression was “not as robust as those of HOX10”.

What about the MEIS1 gene expression (MV4-11 cells; 4 days of treatment) of the same compound?
The MEIS1 gene expression was “reduced”.

And the MYB gene expression (MV4-11 cells; 4 days of treatment)?
The MYB gene expression was “no effect”.

What about the HOX10 gene expression (MV4-11 cells; [7]) of the same compound?
The HOX10 gene expression was “reduced”.

Which IC50 (menin protein; [2]) does the source give for `CCN1Cc2ccccc2C(C2CCN(CC3CN(c4ccc(S(=O)(=O)c5cnn(C)c5)cc4)C3)CC2)([C@H]2CCC[C@@H]2NC(=O)NC)C1` (mixture of isomers) [Cpd. No. 291, rac-1-((1S,2R)-2-(2-ethyl-4-(1-((1-(4-((1-methyl-1H-pyrazol-4-yl)sulfonyl)phenyl)azetidin-3-yl)methyl)piperidin-4-yl)-1,2,3,4-tetrahydroisoquinolin-4-yl)cyclopentyl)-3-methylurea] here?
Its IC50 is 0.007 µM.

And the IC50 [1, 3]?
The IC50 was 0.71 µM.

What about the IC50 [1, 4] of the same compound?
Its IC50 is 0.2 µM.

With `CNC(=O)O[C@H]1CCC[C@@H]1C(Cn1ccnc1)(c1ccccc1)C1CCN(CC2CN(c3ccc(C#N)cc3)C2)CC1` (mixture of isomers) [Cpd. No. 366, rac-(1S,2R)-2-(1-(1-((1-(4-cyanophenyl)azetidin-3-yl)methyl)piperidin-4-yl)-2-(1H-imidazol-1-yl)-1-phenylethyl)cyclopentyl methylcarbamate] as the compound, how does the IC50 (menin protein; [2]) read?
Its IC50 is 0.009 µM.

And the IC50 [1, 5]?
Its IC50 is 0.14 µM.

What about the IC50 [1, 6] of the same compound?
Its IC50 is 0.035 µM.

What about the MEIS1 gene expression (MOLM-13 cells; 40 hours of treatment) of the same compound?
Its MEIS1 gene expression is “reduced”.

And the “all the tested HOX genes (HOX7, HOX9, HOX10, HOX11) expression” value (MOLM-13 cells; 40 hours of treatment, dose dependent)?
Its value is “reduces”.

What about the ITGAM gene expression (MOLM-13 cells; 66 hours of treatment) of the same compound?
The ITGAM gene expression was “not effect”.

What about the MEIS1 gene expression (MOLM-13 cells; 66 hours of treatment) of the same compound?
Its MEIS1 gene expression is “reduced”.

And the HOX7 gene expression (MOLM-13 cells; [8])?
The HOX7 gene expression was “reduced”.

What about the HOX10 gene expression (MOLM-13 cells; [8]) of the same compound?
Its HOX10 gene expression is “reduced”.

And the MEIS1 gene expression (MOLM-13 cells; 4 days of treatment)?
The MEIS1 gene expression was “reduced”.

And the HOX7 gene expression (MOLM-13 cells; [7])?
Its HOX7 gene expression is “reduced”.

And the HOX10 gene expression (MOLM-13 cells; [7])?
The HOX10 gene expression was “reduced”.

And the MYB gene expression (MOLM-13 cells; 4 days of treatment, high concentration)?
Its MYB gene expression is “may reduce”.

What about the HOX7 gene expression (MV4-11 cells; 40 hours of treatment) of the same compound?
Its HOX7 gene expression is “Neither Cpd. No. 366 nor Cpd. No. 215 showed an effect”.

What about the HOX10 gene expression (MV4-11 cells; 40 hours of treatment) of the same compound?
The HOX10 gene expression was “significantly reduced”.

What about the HOX11 gene expression (MV4-11 cells; 40 hours of treatment) of the same compound?
Its HOX11 gene expression is “significantly reduced”.

What about the MEIS1 gene expression (MV4-11 cells; 40 hours of treatment) of the same compound?
Its MEIS1 gene expression is “reduced”.

And the HOX7 gene expression (MV4-11 cells; 4 days of treatment)?
Its HOX7 gene expression is “not as robust as those of HOX10”.

And the MEIS1 gene expression (MV4-11 cells; 4 days of treatment)?
Its MEIS1 gene expression is “reduced”.

And the MYB gene expression (MV4-11 cells; 4 days of treatment)?
The MYB gene expression was “no effect”.

And the HOX10 gene expression (MV4-11 cells; [7])?
Its HOX10 gene expression is “reduced”.

What does the source list for `CNC(=O)O[C@H]1CCC[C@@H]1C(C#N)(c1ccccc1)C1CCN(CCCOc2ccc(C#N)cc2)CC1` (mixture of isomers) [compound 232, rac-(1S,2R)-2-(cyano(1-(3-(4-cyanophenoxy)propyl)piperidin-4-yl)(phenyl)methyl)cyclopentyl methylcarbamate]?
IC50 (menin protein; [2]): 0.02 µM; IC50 [1, 3]: 0.94 µM; IC50 [1, 4]: 0.3 µM

For `CNC(=O)O[C@H]1CCC[C@@H]1C(C#N)(c1ccccc1)C1CCN(CC2(F)CN(c3ccc(S(=O)(=O)c4cnn(C)c4)cc3)C2)CC1` (mixture of isomers) [compound 369, rac-(1S,2R)-2-(cyano(1-((3-fluoro-1-(4-((1-methyl-1H-pyrazol-4-yl)sulfonyl)phenyl)azetidin-3-yl)methyl)piperidin-4-yl)(phenyl)methyl)cyclopentyl methylcarbamate], which IC50 (menin protein; [2]) is on record?
Its IC50 is 0.068 µM.

And the IC50 [1, 3]?
Its IC50 is 7.71 µM.

What about the IC50 [1, 4] of the same compound?
Its IC50 is 3.5 µM.

Which IC50 (menin protein; [2]) does the source give for `CCC(=O)O[C@H]1CCC[C@@H]1C(C#N)(c1ccccc1)C1CCN(CC2CN(c3ccc(S(=O)(=O)c4ccncc4)cc3)C2)CC1` (mixture of isomers) [compound 195, rac-(1S,2R)-2-(cyano(phenyl)(1-((1-(4-(pyridin-4-ylsulfonyl)phenyl)azetidin-3-yl)methyl)piperidin-4-yl)methyl)cyclopentyl propionate] here?
Its IC50 is 0.01 µM.

And the IC50 [1, 3]?
Its IC50 is 1.5 µM.

And the IC50 [1, 4]?
The IC50 was 0.991 µM.

For `CC(=O)N[C@H]1CCC[C@@H]1C(Cn1ccnc1)(c1ccccc1)C1CCN(CC2CN(c3ccc(S(=O)(=O)c4ccccc4)cc3)C2)CC1` (mixture of isomers) [compound 381, rac-N-((1S,2R)-2-(2-(1H-imidazol-1-yl)-1-phenyl-1-(1-((1-(4-(phenylsulfonyl)phenyl)azetidin-3-yl)methyl)piperidin-4-yl)ethyl)cyclopentyl) acetamide], which IC50 (menin protein; [2]) is on record?
Its IC50 is 0.013 µM.

What about the IC50 [1, 3] of the same compound?
Its IC50 is 0.67 µM.

And the IC50 [1, 4]?
Its IC50 is 0.14 µM.

Which IC50 (menin protein; [2]) does the source give for `CNC(=O)O[C@H]1CCC[C@@H]1C(Cn1ccnc1)(c1ccccc1)C1CCN(CC2CN(c3ccc(S(=O)(=O)c4cnn(C)c4)cc3)C2)CC1` (mixture of isomers) [compound 238, rac-(1S,2R)-2-(2-(1H-imidazol-1-yl)-1-(1-((1-(4-((1-methyl-1H-pyrazol-4-yl)sulfonyl)phenyl)azetidin-3-yl)methyl)piperidin-4-yl)-1-phenylethyl)cyclopentyl methylcarbamate] here?
The IC50 was 0.008 µM.

And the IC50 [1, 5]?
Its IC50 is 0.16 µM.

And the IC50 [1, 6]?
The IC50 was 0.027 µM.

What about the ITGAM gene expression (MOLM-13 cells; 66 hours of treatment) of the same compound?
The ITGAM gene expression was “not effect”.

What about the MEIS1 gene expression (MOLM-13 cells; 66 hours of treatment) of the same compound?
Its MEIS1 gene expression is “reduced”.

What about the HOX7 gene expression (MOLM-13 cells; [8]) of the same compound?
Its HOX7 gene expression is “reduced”.

And the HOX10 gene expression (MOLM-13 cells; [8])?
Its HOX10 gene expression is “reduced”.

With `CNC(=O)N[C@H]1CCC[C@@H]1C1(C2CCN(CC3CN(c4ccc(S(=O)(=O)c5ccncc5)cc4)C3)CC2)CN(C)Cc2ccccc21` (mixture of isomers) [compound 277, rac-1-methyl-3-((1S,2R)-2-(2-methyl-4-(1-((1-(4-(pyridin-4-ylsulfonyl)phenyl)azetidin-3-yl)methyl)piperidin-4-yl)-1,2,3,4-tetrahydroisoquinolin-4-yl)cyclopentyl)urea] as the compound, how does the IC50 (menin protein; [2]) read?
Its IC50 is 0.008 µM.

What about the IC50 [1, 3] of the same compound?
Its IC50 is 0.43 µM.

What about the IC50 [1, 4] of the same compound?
The IC50 was 0.12 µM.
